The results in this text go back to patent US6413974B1, “6,9,-disubstituted 2-[trans-(4-aminocyclohexyl) amino] purines” (Aventis Pharmaceuticals Inc., priority 1998, dated 2002).

One experiment deals with T1, cdk2/cyclin E (Homo sapiens, UniProt P24941).
T1 construct: made in house; host or cells: insect cells (baculovirus co-infection)
Briefly: Cyclin-Dependent Kinase 2 Assay (cdk-2 inhibition). The class given is biochemical. Conditions: GST-Rb substrate, 30 min at 30° C. The method, boiled down:
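GST-Rb bound to glutathione-Sepharose beads (0.5 μg/well) as substrate in 50 mM HEPES pH 7.5, 10 mM MgCl2, 1 mM EGTA. Recombinant cdk2/cyclin E at 0.1 μg per 100 μl, 30 min at 30 °C. Reaction stopped by filtration, TNEN washes, scintillation counting.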

The target in the next experiment is T2, cdk4/cyclin D1 (Homo sapiens, UniProt P11802).
T2 construct: made in house; host or cells: Sf9 insect cells (Bac-to-Bac baculovirus, pFastBac)
T2 sequence (P11802 whole entry): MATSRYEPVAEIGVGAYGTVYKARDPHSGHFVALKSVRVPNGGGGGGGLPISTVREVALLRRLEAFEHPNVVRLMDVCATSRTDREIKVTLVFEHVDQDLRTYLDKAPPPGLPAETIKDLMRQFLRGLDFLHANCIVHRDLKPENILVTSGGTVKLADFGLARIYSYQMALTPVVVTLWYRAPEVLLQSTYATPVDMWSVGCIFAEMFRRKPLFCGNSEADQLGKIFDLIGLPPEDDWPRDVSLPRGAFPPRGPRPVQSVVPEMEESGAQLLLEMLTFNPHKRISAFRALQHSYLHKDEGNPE
T2 sequence (P24385 whole entry partner): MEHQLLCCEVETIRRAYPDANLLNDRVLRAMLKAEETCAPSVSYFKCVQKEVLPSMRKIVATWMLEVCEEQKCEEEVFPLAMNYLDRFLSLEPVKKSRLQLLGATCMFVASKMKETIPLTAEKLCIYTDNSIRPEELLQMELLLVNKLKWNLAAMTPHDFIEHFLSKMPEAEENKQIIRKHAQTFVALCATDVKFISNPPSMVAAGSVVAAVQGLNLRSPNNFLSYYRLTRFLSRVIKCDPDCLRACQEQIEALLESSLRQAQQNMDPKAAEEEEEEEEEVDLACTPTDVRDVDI
Briefly: Cyclin-dependent kinase 4 Assay. Format: biochemical. The following applies: cdk4/cyclin D1, GST-Rb substrate, 10 μM ATP, 30 min at 37° C.; read-out: CDK4 Inhibition IC50. In outline: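 Insect-cell lysate of coexpressed human cdk4/cyclin D1 (0.1 μg) phosphorylated bead-bound GST-Rb (0.5 μg) in 50 mM HEPES pH 7.5, 10 mM MgCl2, 1 mM EGTA for 30 min at 37 °C. Filters were washed with TNEN and scintillation-counted; IC50 values derived.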

A further experiment relates to HT-29. Briefly: In vitro tumor cell proliferation, HT-29. Format: cell-based, human. The following applies: read-out: In vitro Tumor Cell Proliferation (IC50, μM) Colon HT-29 (converted). The method, boiled down: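 HT-29 human colon adenocarcinoma cells plated overnight at 37° C., then exposed to drug for 3 days, medium with fresh drug replaced for a further 4 days. Cells fixed with 10% TCA and stained with 0.4% sulforhodamine B; alternatively, CyQUANT read after 3 days of drug exposure.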

For another experiment, the system named is DU 145. Briefly: In vitro tumor cell proliferation, DU 145. The class given is cell-based, human. The following applies: read-out: In vitro Tumor Cell Proliferation (IC50, μM) Prostate DUI45. The method, boiled down:
(§1)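 Viable (trypan blue-excluding) cells plated and left overnight at 37° C, then exposed to drug for 3 days, refed with fresh drug-containing medium for 4 more days. TCA-fixed cells stained with 0.4% sulforhodamine B; alternatively, CyQUANT read after 3 days of drug and freezing at −80° C.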

Another experiment has as its system DMS-114. Briefly: In vitro tumor cell proliferation, DMS-114. Format: cell-based, human. The following applies: read-out: In vitro Tumor Cell Proliferation (IC50, μM) Lung DMS-114. The method, boiled down:
as §1

The subject of another experiment is MDA-MB-435. Briefly: In vitro tumor cell proliferation, MDA-MB-435. Format: cell-based, human. The following applies: read-out: In vitro Tumor Cell Proliferation (IC50, μM) Breast MDA-MB-435. The method, boiled down:
as §1

Another experiment deals with PC-3. Briefly: In vitro tumor cell proliferation, PC-3. Format: cell-based, human. Conditions: read-out: In vitro Tumor Cell Proliferation (IC50, μM) Prostate PC-3. The method, boiled down:
as §1

The subject of a further experiment is MDA-MB-231. Briefly: In vitro tumor cell proliferation, MDA-MB-231. Format: cell-based, human. Conditions: read-out: In vitro Tumor Cell Proliferation (IC50, μM) Breast MDA-MB-231. The method, boiled down: as §1
The test system of a further experiment is A549. Briefly: In vitro tumor cell proliferation, A549. Format: cell-based, human. Conditions: read-out: In vitro Tumor Cell Proliferation (IC50, μM) Lung A549. The method, boiled down:
as §1

A further experiment has as its system Colo-205. Briefly: In vitro tumor cell proliferation, Colo-205. Format: cell-based, human. Conditions: read-out: In vitro Tumor Cell Proliferation (IC50, μM) Colon Colo-205. In outline:
as §1

[1] abbreviates: Homo sapiens, HT-29, values marked * (mark not explained).
[2] abbreviates: values marked * (mark not explained), dihydrochloride.
The mark [3] stands for this setting: Homo sapiens, DU-145, values marked * (mark not explained).
The mark [4] stands for this setting: Homo sapiens, DMS-114, values marked * (mark not explained).
The mark [5] stands for this setting: Homo sapiens, MDA-MB-435, values marked * (mark not explained).
Where [6] appears, read: Homo sapiens, PC-3, values marked * (mark not explained).
[7] abbreviates: Homo sapiens, MDA-MB-231, values marked * (mark not explained).
Setting [8] is: Homo sapiens, A549, values marked * (mark not explained).
The mark [9] stands for this setting: Homo sapiens, COLO 205, values marked * (mark not explained).

Several values for one entry are separate records, joined by “and”; a condition that tells them apart may be missing. Equal values may be shown once. Where a name gives a salt, the structure may show the parent alone. Read-outs that look alike come from different tables or passages of the source. Some results are limits rather than exact numbers.

Regarding `N[C@H]1CC[C@H](Nc2nc(NCc3cccs3)c3ncn(C4CCCC4)c3n2)CC1` [Example 17, 2-[Trans-(4-aminocyclohexyl)amino]-6-(2-thiophenemethylamino)-9-cyclopentylpurine dihydrochloride], the IC50 is 69 nM and 46 nM at cdk2/cyclin E; 300 nM and 500 nM at cdk4/cyclin D1; 2.4 µM in the experiment on HT-29 (setting [1]); 2.6 µM in the experiment with HT-29 (setting [2]); 1.6 µM with DU 145 (setting [3]); 1.9 µM in the experiment with DMS-114 (setting [4]). In addition, the IC50 in the experiment on DMS-114 (setting [2]) was 1.7 µM; in the experiment with MDA-MB-435 (setting [5]), 3.2 µM; in the experiment on MDA-MB-435 (setting [2]), 3.7 µM; in the experiment with PC-3 (setting [6]), 1.7 µM; in the experiment with MDA-MB-231 (setting [7]) it was 2.4 µM; in the experiment on MDA-MB-231 (setting [2]), 3 µM. Also, the IC50 with A549 (setting [8]) came out at 1.8 µM; with A549 (setting [2]) it was 1.6 µM; in the experiment with Colo-205 (setting [9]) it was 2.2 µM; in the experiment on Colo-205 (setting [2]) it was 3 µM.
Regarding `CCCCCCCCNc1nc(N[C@H]2CC[C@H](N)CC2)nc2c1ncn2C1CCCC1` [Example 20, 2-[Trans-(4-aminocyclohexyl)amino]-6-(octylamino)-9-cyclopentylpurine dihydrochloride], the IC50 was 330 nM and 310 nM and 460 nM at cdk2/cyclin E; 2400 nM at cdk4/cyclin D1; 1.9 µM in the experiment with HT-29 (setting [1]); 1.7 µM with HT-29 (setting [2]); 2.4 µM in the experiment on DU 145 (setting [3]); 1.9 µM with DU 145 (setting [2]). Also, the IC50 came out at 1.1 µM with DMS-114 (setting [4]); 0.95 µM in the experiment on DMS-114 (setting [2]); 2.3 µM with MDA-MB-435 (setting [5]); 1.8 µM in the experiment with MDA-MB-435 (setting [2]); 1.7 µM in the experiment with PC-3 (setting [6]); 1.8 µM in the experiment on PC-3 (setting [2]). The IC50 turned out to be 2.7 µM with MDA-MB-231 (setting [7]); 1.9 µM with MDA-MB-231 (setting [2]); 1.7 µM with A549 (setting [8]); 1 µM with A549 (setting [2]); 1.9 µM in the experiment on Colo-205 (setting [9]); 1.4 µM with Colo-205 (setting [2]).
As to `N[C@H]1CC[C@H](Nc2nc(NCCCCc3ccccc3)c3ncn(C4CCCC4)c3n2)CC1` [Example 21, 2-[Trans-(4-aminocyclohexyl)amino]-6-(4-phenylbutylamino)-9-cyclopentylpurine dihydrochloride], the IC50 on cdk2/cyclin E is 39 nM and 91 nM; on cdk4/cyclin D1, 1000 nM; in the experiment with HT-29 (setting [1]), 0.7 µM; in the experiment on HT-29 (setting [2]), 0.8 µM; in the experiment on DU 145 (setting [3]) it was 0.4 µM; with DU 145 (setting [2]), 0.7 µM. For the same compound, the IC50 worked out at 0.7 µM in the experiment on DMS-114 (setting [4]); 0.6 µM with DMS-114 (setting [2]); 1.3 µM with MDA-MB-435 (setting [5]); 1.2 µM in the experiment on MDA-MB-435 (setting [2]); 0.6 µM in the experiment on PC-3 (setting [6]); 0.8 µM with PC-3 (setting [2]). Also, the IC50 in the experiment with MDA-MB-231 (setting [7]) turned out to be 0.8 µM; with MDA-MB-231 (setting [2]), 0.9 µM; with A549 (setting [8]) it was 0.5 µM; in the experiment with Colo-205 (setting [9]), 0.51 µM; with Colo-205 (setting [2]), 0.78 µM.
On to `N[C@H]1CC[C@H](Nc2nc(NCCCCCO)c3ncn(C4CCCC4)c3n2)CC1` [Example 25, 2-[Trans-(4-aminocyclohexyl)amino]-6-[5-(hydroxy)pentylamino]-9-cyclopentylpurine dihydrochloride], for which the IC50 against cdk2/cyclin E was 21 nM; at cdk4/cyclin D1, 110 nM; in the experiment on HT-29 (setting [1]) it was 5.6 µM; with HT-29 (setting [2]) it was 6.2 µM; with DU 145 (setting [3]) it was 3.9 µM; in the experiment with DU 145 (setting [2]), 4.6 µM. For the same compound, the IC50 came out at 6.6 µM in the experiment on DMS-114 (setting [4]); 4.5 µM in the experiment with DMS-114 (setting [2]); 6 µM in the experiment with MDA-MB-435 (setting [5]); 1.8 µM with PC-3 (setting [6]); 2.3 µM in the experiment on PC-3 (setting [2]); 3.4 µM with MDA-MB-231 (setting [7]). Further, the IC50 with MDA-MB-231 (setting [2]) amounted to 5.4 µM; in the experiment with A549 (setting [8]), 6.1 µM; in the experiment on A549 (setting [2]), 5.5 µM; in the experiment with Colo-205 (setting [9]) it was 2.4 µM; with Colo-205 (setting [2]), 2.3 µM.
For the compound `N[C@H]1CC[C@H](Nc2nc(NNCCc3ccccc3)c3ncn(C4CCCC4)c3n2)CC1` [Example 35, 2-[Trans-(4-aminocyclohexyl)amino]-6-[2-phenethylhydrazino]-9-cyclopentylpurine dihydrochloride], the IC50 at cdk2/cyclin E was 253 nM; on cdk4/cyclin D1, 2200 nM and 1600 nM; in the experiment on HT-29 (setting [1]), 5.6 µM; in the experiment with HT-29 (setting [2]) it was 5.4 µM; in the experiment with DU 145 (setting [3]), 3.7 µM; in the experiment with DU 145 (setting [2]) it was 3.2 µM. Further, the IC50 in the experiment with DMS-114 (setting [4]) came to 3 µM; with DMS-114 (setting [2]) it was 2.7 µM; in the experiment on MDA-MB-435 (setting [5]), 9.5 µM; with MDA-MB-435 (setting [2]), 8 µM; in the experiment with PC-3 (setting [6]) it was 3 µM; in the experiment with PC-3 (setting [2]), 4.4 µM. The IC50 in the experiment on MDA-MB-231 (setting [7]) was 4.2 µM; in the experiment with MDA-MB-231 (setting [2]), 5.6 µM; in the experiment with A549 (setting [8]), 2.7 µM; in the experiment on A549 (setting [2]), 2.5 µM; in the experiment on Colo-205 (setting [9]), 3.4 µM; with Colo-205 (setting [2]), 3.2 µM.
`CCCCNc1nc(N[C@H]2CC[C@H](N)CC2)nc2c1ncn2C(C)C` [Example 37, 2-[Trans-(4-aminocyclohexyl)amino]-6-[(butyl)amino]-9-(2-propyl)purine dihydrochloride]: the IC50 against cdk2/cyclin E was 240 nM; on cdk4/cyclin D1, 7000 nM; in the experiment with HT-29 (setting [1]), 19 µM; in the experiment on DU 145 (setting [3]) it was over 20 µM; in the experiment with DU 145 (setting [2]), 10 µM; in the experiment on DMS-114 (setting [4]), 9.7 µM. Also, the IC50 turned out to be 8 µM in the experiment on DMS-114 (setting [2]); 19 µM with MDA-MB-435 (setting [5]); 16 µM in the experiment on MDA-MB-435 (setting [2]); 11 µM in the experiment with PC-3 (setting [6]); 24 µM with MDA-MB-231 (setting [7]); 8.3 µM in the experiment with A549 (setting [2]). Moreover, the IC50 in the experiment with Colo-205 (setting [2]) worked out at 11 µM.
As for `CCCCCCNc1nc(N[C@H]2CC[C@H](N)CC2)nc2c1ncn2C1CCCC1` [Example 41, 2-[Trans-(4-aminocyclohexyl)amino]-6-(hexylamino)-9-cyclopentylpurine dihydrochloride], the IC50 was 200 nM against cdk2/cyclin E; 820 nM and 1900 nM at cdk4/cyclin D1; 1.6 µM in the experiment on HT-29 (setting [1]); 1.1 µM in the experiment with DU 145 (setting [3]); 0.9 µM in the experiment with DMS-114 (setting [4]); 2.6 µM with MDA-MB-435 (setting [5]). Besides, the IC50 in the experiment with PC-3 (setting [6]) came out at 1.5 µM; in the experiment with MDA-MB-231 (setting [7]), 1.7 µM; in the experiment with A549 (setting [8]), 1.1 µM; in the experiment with Colo-205 (setting [9]), 1.7 µM.
Regarding `CCCNc1nc(N[C@H]2CC[C@H](N)CC2)nc2c1ncn2C1CCCC1` [Example 44, 2-[Trans-(4-aminocyclohexyl)amino]-6-(propylamino)-9-cyclopentylpurine dihydrochloride], the IC50 against cdk2/cyclin E was 9 nM and 11 nM; on cdk4/cyclin D1, 250 nM and 370 nM and 160 nM; in the experiment with HT-29 (setting [1]), 0.69 µM; with HT-29 (setting [2]), 0.65 µM; in the experiment on DU 145 (setting [3]), 0.5 µM; with DU 145 (setting [2]), 0.6 µM. In addition, the IC50 was determined as 0.44 µM with DMS-114 (setting [4]); 0.53 µM in the experiment on DMS-114 (setting [2]); 0.85 µM with MDA-MB-435 (setting [5]); 0.52 µM in the experiment with PC-3 (setting [6]); 0.47 µM with PC-3 (setting [2]); 0.8 µM in the experiment with MDA-MB-231 (setting [7]). For the same compound, the IC50 amounted to 0.6 µM with MDA-MB-231 (setting [2]); 0.63 µM in the experiment with A549 (setting [8]); 0.47 µM in the experiment on A549 (setting [2]); 0.58 µM in the experiment on Colo-205 (setting [9]); 0.4 µM in the experiment with Colo-205 (setting [2]).
